In one assay the target is T1, human NaPi-IIb (Homo sapiens, UniProt O95436).
T1 construct: expressed in transfected cells
T1 sequence (O95436 1-690): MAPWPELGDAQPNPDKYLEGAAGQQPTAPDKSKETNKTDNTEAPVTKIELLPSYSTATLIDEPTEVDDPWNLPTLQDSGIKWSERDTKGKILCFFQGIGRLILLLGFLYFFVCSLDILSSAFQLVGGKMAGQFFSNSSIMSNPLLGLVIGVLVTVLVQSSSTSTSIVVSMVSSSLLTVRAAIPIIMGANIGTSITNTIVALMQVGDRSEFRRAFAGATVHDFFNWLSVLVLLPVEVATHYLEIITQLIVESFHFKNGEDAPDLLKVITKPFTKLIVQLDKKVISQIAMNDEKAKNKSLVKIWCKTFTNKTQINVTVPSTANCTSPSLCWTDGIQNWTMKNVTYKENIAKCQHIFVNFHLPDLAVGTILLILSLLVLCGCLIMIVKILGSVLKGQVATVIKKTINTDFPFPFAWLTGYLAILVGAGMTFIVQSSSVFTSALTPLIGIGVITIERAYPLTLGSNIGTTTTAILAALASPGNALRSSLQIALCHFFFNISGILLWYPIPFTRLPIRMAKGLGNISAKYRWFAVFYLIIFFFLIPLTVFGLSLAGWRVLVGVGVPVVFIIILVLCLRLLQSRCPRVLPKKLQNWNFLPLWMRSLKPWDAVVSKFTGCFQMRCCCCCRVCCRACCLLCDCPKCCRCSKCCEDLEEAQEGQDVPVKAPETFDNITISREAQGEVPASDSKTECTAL
As to the kind of experiment: Inhibitory effect on 33PO4 uptake into human NaPi-IIb-expressing CHO cells. Format: cell-based. An outline of the steps:
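Uptake of ³³PO4 was measured by scintillation counting after ice-cold buffer A washes. Cells were CHO stably expressing human NaPi-IIb, seeded overnight, and exposed to ³³PO4 in buffer A at room temperature.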

Assay [1] has as its system adenine-induced renal failure rat. As to the kind of experiment: Suppressive effect on rise in serum phosphorus concentration of adenine-induced renal failure rat (0.1% in feed, 3 days). The following applies: feed or water, 72 h, 0.1% of mass concentration in feed, read-out: Rate of inhibition (%) (suppression of a rise in serum phosphorus concentration). Format: in vivo. The text has this:
Test Example 5: Suppressive Effect on Rise in Serum Phosphorus Concentration of Adenine-Induced Renal Failure Rat
Adenine was forcedly administered orally to each Wistar male rat (7-8 weeks old) to impair renal functions and thereby prepare a hyperphosphatemia model (Katsumata K, Kusano K, Hirata M, Tsunemi K, Nagano N, Burke S K, Fukushima N. Sevelamer hydrochloride prevents ectopic calcification and renal osteodystrophy in chronic renal failure rats. Kidney Int. 2003 August; 64 (2): 441-50). Each test compound was mixed at a ratio of 0.1% of mass concentration with feed. The animal was fed with a given amount of the feed for 3 days. A group given feed non-supplemented with a test compound was used as a reference pathological group, and an adenine-unadministered group given feed non-supplemented with a test compound was used as a normal group. […] Serum phosphorus concentrations were measured by the Fiske-Subbarow method. The rate of suppression of a rise in serum phosphorus concentration was determined according to the following expression: Rate (%) of suppression of a rise in serum phosphorus concentration=(1−[(Serum phosphorus concentration of the test compound-treated pathological group)−(Serum phosphorus concentration of the normal group)]/[(Serum phosphorus concentration of the reference pathological group)−(Serum phosphorus concentration of the normal group)])×100

The next assay deals with T2, human PiT-1 (Homo sapiens, UniProt Q8WUM9).
T2 construct: expressed in transfected cells; host or cells: CHO cells
T2 sequence (Q8WUM9 1-679): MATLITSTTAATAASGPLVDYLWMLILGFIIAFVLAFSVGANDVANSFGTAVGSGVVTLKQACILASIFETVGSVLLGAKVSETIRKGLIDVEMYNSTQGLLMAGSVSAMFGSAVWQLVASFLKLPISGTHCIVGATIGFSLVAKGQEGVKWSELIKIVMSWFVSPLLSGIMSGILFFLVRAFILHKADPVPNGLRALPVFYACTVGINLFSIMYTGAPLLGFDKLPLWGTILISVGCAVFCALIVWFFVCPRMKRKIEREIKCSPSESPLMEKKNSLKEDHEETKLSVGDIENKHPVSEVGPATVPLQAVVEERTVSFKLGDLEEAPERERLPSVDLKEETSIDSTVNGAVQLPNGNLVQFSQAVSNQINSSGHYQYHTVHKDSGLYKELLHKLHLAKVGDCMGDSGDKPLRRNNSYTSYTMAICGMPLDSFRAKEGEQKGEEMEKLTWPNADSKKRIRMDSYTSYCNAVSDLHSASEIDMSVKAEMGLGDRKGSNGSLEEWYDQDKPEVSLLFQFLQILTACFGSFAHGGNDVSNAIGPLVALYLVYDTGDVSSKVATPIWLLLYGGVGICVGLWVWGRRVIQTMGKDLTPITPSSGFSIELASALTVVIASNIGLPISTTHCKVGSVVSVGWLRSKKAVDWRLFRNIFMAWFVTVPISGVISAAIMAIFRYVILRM
As to the kind of experiment: Inhibitory effect on 33PO4 uptake into human PiT-1-expressing CHO cells. The format is cell-based. Conditions: compound 0.24, 1.2, 6 or 30 μM, pH 6.5, read-out: IC50 against 33PO4 uptake into human PiT-1-expressing cells. On the procedure:
Test Example 3: Inhibitory Effect on ^33PO4 Uptake into Human PiT-1-Expressing Cell
(§1) CHO cells were transfected with human PiT-1 expression plasmids or empty vectors to prepare human PiT-1-expressing cells and empty vector-expressing cells. The human PiT-1-expressing cells or the empty vector-expressing cells were inoculated to a 96-well plate and incubated overnight in a CO2 incubator. […] After a given time, a 1/20 volume of buffer A containing ^33PO4 was added thereto and reacted at room temperature. After washing with ice-cold buffer A, a liquid scintillator was added to each reaction mixture, and the amount of ^33PO4 uptake was measured using TopCount. The rate of inhibition was determined according to the following expression: Rate (%) of inhibition=(1−(Amount of ^33PO4 uptake in the compound-supplemented well containing the human PiT-1-expressing cells−Amount of ^33PO4 uptake in the compound-supplemented well containing the empty vector-expressing cells)/(Amount of ^33PO4 uptake in the DMSO-supplemented well containing the human PiT-1-expressing cells −Amount of ^33PO4 uptake in the DMSO-supplemented well containing the empty vector-expressing cells))×100

The next assay deals with T3, human PiT-2 (Homo sapiens, UniProt Q08357).
T3 construct: expressed in transfected cells; host or cells: CHO cells
T3 sequence (Q08357 1-652): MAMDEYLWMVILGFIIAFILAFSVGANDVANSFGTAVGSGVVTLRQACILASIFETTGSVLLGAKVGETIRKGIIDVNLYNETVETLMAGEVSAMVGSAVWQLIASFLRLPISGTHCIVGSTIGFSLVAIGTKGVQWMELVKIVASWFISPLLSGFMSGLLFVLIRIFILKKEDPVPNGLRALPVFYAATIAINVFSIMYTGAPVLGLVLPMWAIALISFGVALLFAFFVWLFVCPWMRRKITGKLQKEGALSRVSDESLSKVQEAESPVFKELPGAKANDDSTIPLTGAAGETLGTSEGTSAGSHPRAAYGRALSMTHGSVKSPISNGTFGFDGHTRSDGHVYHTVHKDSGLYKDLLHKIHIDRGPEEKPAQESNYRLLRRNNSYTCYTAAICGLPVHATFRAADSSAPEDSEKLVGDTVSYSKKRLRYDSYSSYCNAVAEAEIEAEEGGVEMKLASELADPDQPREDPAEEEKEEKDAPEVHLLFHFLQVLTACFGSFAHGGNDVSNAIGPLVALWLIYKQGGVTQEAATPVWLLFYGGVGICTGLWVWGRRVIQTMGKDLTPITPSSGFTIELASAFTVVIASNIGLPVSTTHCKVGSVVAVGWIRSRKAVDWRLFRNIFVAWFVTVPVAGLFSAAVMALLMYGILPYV
The experiment in a line: Inhibitory effect on 33PO4 uptake into human PiT-2-expressing CHO cells. The format is cell-based. Conditions: pH 6.5, read-out: IC50 against 33PO4 uptake into human PiT-2-expressing cells. The protocol: Test Example 4: Inhibitory Effect on ^33PO4 Uptake into Human PiT-2-Expressing Cell
as §1, with “PiT-2” for “PiT-1”, “PiT-2-expressing” for “PiT-1-expressing”

Structures can show the parent of a compound that is named as a salt. Where two headings read alike, the source gives them in different places.

By IC50 is commonly meant the midpoint of a concentration-inhibition curve. As for `C[C@]12CCCN1N(Cc1ccc(OCCN3CCOCC3)c(F)c1F)C(=O)C(C(=O)Nc1ccc(C(F)(F)F)cc1-c1ccnc(C#N)c1)=C2O` [Example 52, (4aR)-N-[2-(2-Cyanopyridin-4-yl)-4-(trifluoromethyl)phenyl]-1-[[2,3-difluoro-4-(2-morpholin-4-ylethoxy)phenyl]methyl]-4-hydroxy-4a-methyl-2-oxo-6,7-dihydro-5H-pyrrolo[1,2-b]pyridazine-3-carboxamide], on human NaPi-IIb (read-out: IC50), the IC50 turned out to be 16.8 µM. In addition, the inhibition in vivo at 0.1 %, 0.1 % in feed in assay [1] came to 20%.
In the case of `C[C@]12CCCN1N(Cc1ccc(OCCCCCCOC[C@H](O)CO)c(F)c1F)C(=O)C(C(=O)Nc1cnc(C(F)(F)F)nc1-c1ccc(C(F)(F)F)nc1)=C2O` [Example 156, (4aR)-1-[[4-[6-[(2R)-2,3-Dihydroxypropoxy]hexoxy]-2,3-difluorophenyl]methyl]-4-hydroxy-4a-methyl-2-oxo-N-[2-(trifluoromethyl)-4-[6-(trifluoromethyl)pyridin-3-yl]pyrimidin-5-yl]-6,7-dihydro-5H-pyrrolo[1,2-b]pyridazine-3-carboxamide], the values for the IC50 at human NaPi-IIb (read-out: IC50), at human PiT-1 and on human PiT-2 were 3.2 µM, 3.9 µM and 7.2 µM, respectively.
On the same counts, the results for `C[C@]12CCCN1N(Cc1ccc(C#CCCCC(=O)O)c(F)c1F)C(=O)C(C(=O)Nc1ccc(C(F)(F)F)cc1-c1cc(C(F)(F)F)ncn1)=C2O` [Example 129, 6-[4-[[(4aR)-4-Hydroxy-4a-methyl-2-oxo-3-[[4-(trifluoromethyl)-2-[6-(trifluoromethyl)pyrimidin-4-yl]phenyl]carbamoyl]-6,7-dihydro-5H-pyrrolo[1,2-b]pyridazin-1-yl]methyl]-2,3-difluorophenyl]hex-5-ynoic acid] are 13.7 µM, 6.5 µM and 8.7 µM.
Regarding `COCCN(C)CCOc1ccc(CN2C(=O)C(C(=O)Nc3ccc(C(F)(F)F)cc3-c3ncnc(C(F)(F)F)c3C)=C(O)C3(CCCC3)N2C)c(F)c1F` [Example 416], the 50% inhibitory concentration (IC50) was determined as 5.8 µM on human NaPi-IIb (read-out: IC50 against 33PO4 uptake into human NaPi-IIb-expressing cells), 0.9 µM on human PiT-1 and 1.4 µM on human PiT-2.
On to `C[C@]12CCCN1N(Cc1ccc(OCCN3CCOCC3)c(F)c1F)C(=O)C(C(=O)Nc1ccc(C(F)(F)F)cc1-c1cc(C(F)(F)F)ncn1)=C2O` [Example 157, (4aR)-1-[[2,3-Difluoro-4-(2-morpholin-4-ylethoxy)phenyl]methyl]-4-hydroxy-4a-methyl-2-oxo-N-[4-(trifluoromethyl)-2-[6-(trifluoromethyl)pyrimidin-4-yl]phenyl]-6,7-dihydro-5H-pyrrolo [1,2-b]pyridazine-3-carboxamide], for which the IC50 on human NaPi-IIb (read-out: IC50) amounted to 19.1 µM; on human PiT-1, 3.8 µM; on human PiT-2 it was 3.9 µM.
On the same counts, the results for `C[C@]12CCCN1N(Cc1ccc(CN3CCOCC3)c(F)c1F)C(=O)C(C(=O)Nc1ccc(C(F)(F)F)cc1-c1ccc(C(F)(F)F)nc1)=C2O` [Example 164, (4aR)-1-[[2,3-Difluoro-4-(morpholin-4-ylmethyl)phenyl]methyl]-4-hydroxy-4a-methyl-2-oxo-N-[4-(trifluoromethyl)-2-[6-(trifluoromethyl)pyridin-3-yl]phenyl]-6,7-dihydro-5H-pyrrolo [1,2-b]pyridazine-3-carboxamide; hydrochloride] are 5 µM, 4.1 µM and 4.1 µM.
The matching figures for `Cc1c(C#N)ncnc1-c1cc(C(F)(F)F)ccc1NC(=O)C1=C(O)[C@H](C(C)(C)C)N(C)N(Cc2ccc(OCCN3CCOCC3)c(F)c2F)C1=O` [Example 270, (3S)-3-tert-Butyl-N-[2-(6-cyano-5-methylpyrimidin-4-yl)-4-(trifluoromethyl)phenyl]-1-[[2,3-difluoro-4-(2-morpholin-4-yl-ethoxy)phenyl]methyl]-4-hydroxy-2-methyl-6-oxo-3H-pyridazine-5-carboxamide]: 14.6 µM, 3.4 µM and 3.6 µM.
